Each compound was assayed on SMN protein (assay: cellular SMN ELISA (SMN protein elevation)). Conditions: myoblast cell line derived from SMNdelta7 mouse model; 24 hours compound treatment; concentration range 100 pM-10 uM.
Assay type: cell-based
Description: A cellular SMN ELISA was used to measure the effects of low molecular weight compounds on SMN protein elevation. Cells from a myoblast cell line derived from the SMNdelta7 mouse model (kind gift from Steve Burden, NYU) were seeded into a 384-well plate at a density of 3000 cells/well and treated with compounds for 24 hours. ELISA capture plates were prepared by coating 384-well plates (Immulon 4HBX) with 0.5 ug/mL of anti-SMN mAb (BD Science, Catalog number 610647) at 4° C. overnight. The plates were washed 5 times with 110 uL of PBS-Tween (0.05% Tween-20, PBST), blocked with 100 uL of 1% BSA in PBST for 2 hours and washed (5 times) with 100 uL of PBST. After 24 hours of compound treatment cells were lysed in a modified RIPA-buffer, on ice for 1 hour. 20 uL of lysate and 20 uL of 1% BSA were then added to the ELISA capture plates and incubated at 4° C. overnight. Plates were washed (5 times) with PBST and then incubated with 1:100 dilution of primary rabbit anti-SMN polyclonal antibody (Santa cruz, Catalog number SC-15320) at room temperature for 1 hour and subsequently washed (5 times) with 110 uL of PBST. This was followed by addition of 1:100 Goat anti-Rabbit IgG-HRP linked (Cell Signaling, Catalog number 7074) secondary antibody for 1 hour. Plates were then washed with PBST and incubated with 40 uL TMB substrate (Cell Signaling, Catalog number 7004L) at room temperature for 1-10 minutes with shaking. The reaction was stopped by addition of 40 uL of stop solution (Cell signaling, Catalog number 7002L) and absorption was measured at 450 nm. Data was reported as fold activation over DMSO control and EC50. ELISA assay condition: compound concentration range 100 pM-10 uM.

**Q.** For COc1cc(-n2cccn2)ccc1-c1nnc(N(C)C2CC(C)(C)NC(C)(C)C2)s1 [Example 1, 5-(2-methoxy-4-(1H-pyrazol-1-yl)phenyl)-N-methyl-N-(2,2,6,6-tetramethylpiperidin-4-yl)-1,3,4-thiadiazol-2-amine], which EC50 is on record?
**A.** 63 nM

**Q.** What about the “SMN Activity Fold (fold activation over DMSO control)” value (from here on “SMN Activity Fold”) of the same compound?
**A.** 2.45 fold

**Q.** What does the source list for CN(c1nnc(-c2ccc3cc(O)ccc3c2)s1)C1CC(C)(C)NC(C)(C)C1 [Example 2, 6-(5-(Methyl(2,2,6,6-tetramethylpiperidin-4-yl)amino)-1,3,4-thiadiazol-2-yl)naphthalen-2-ol]?
**A.** EC50: 436 nM; SMN Activity Fold (fold activation over DMSO control): 2.66 fold

**Q.** COc1nc2ccccc2cc1-c1nnc(N(C)C2CC(C)(C)NC(C)(C)C2)s1 [Example 3, 5-(2-Methoxyquinolin-3-yl)-N-methyl-N-(2,2,6,6-tetramethylpiperidin-4-yl)-1,3,4-thiadiazol-2-amine] was tested. Which EC50 did it give?
**A.** 337 nM

**Q.** And the “SMN Activity Fold” value?
**A.** 2.67 fold

**Q.** Which results are given for COc1cc2ccccc2cc1-c1nnc(N(C)C2CC(C)(C)NC(C)(C)C2)s1 [Example 4, 5-(3-Methoxynaphthalen-2-yl)-N-methyl-N-(2,2,6,6-tetramethylpiperidin-4-yl)-1,3,4-thiadiazol-2-amine]?
**A.** EC50: 887 nM; SMN Activity Fold (fold activation over DMSO control): 2.48 fold

**Q.** How did the EC50 turn out when COc1cc(-n2cccn2)ccc1-c1nnc(NC2CC(C)(C)N(C)C(C)(C)C2)s1 [Example 5, 5-(2-Methoxy-4-(1H-pyrazol-1-yl)phenyl)-N-(1,2,2,6,6-pentamethylpiperidin-4-yl)-1,3,4-thiadiazol-2-amine] was run?
**A.** 87 nM

**Q.** What about the “SMN Activity Fold” value of the same compound?
**A.** 2.88 fold

**Q.** With COc1cc(-c2cnn(C)c2)ccc1-c1nnc(N(C)C2CC(C)(C)NC(C)(C)C2)s1 [Example 6, 5-(2-Methoxy-4-(1-methyl-1H-pyrazol-4-yl)phenyl)-N-methyl-N-(2,2,6,6-tetramethylpiperidin-4-yl)-1,3,4-thiadiazol-2-amine] as the compound, how does the EC50 read?
**A.** 44 nM

**Q.** And the “SMN Activity Fold” value?
**A.** 2.49 fold

**Q.** With COc1cc(-c2cn[nH]c2)ccc1-c1nnc(N(C)C2CC(C)(C)NC(C)(C)C2)s1 [Example 7, 5-(2-Methoxy-4-(1H-pyrazol-4-yl)phenyl)-N-methyl-N-(2,2,6,6-tetramethylpiperidin-4-yl)-1,3,4-thiadiazol-2-amine] as the compound, how does the EC50 read?
**A.** 38 nM

**Q.** What about the “SMN Activity Fold” value of the same compound?
**A.** 2.86 fold

**Q.** COc1cc(-c2ccn(C)c(=O)c2)ccc1-c1nnc(N(C)C2CC(C)(C)NC(C)(C)C2)s1 [Example 8, 4-(3-Methoxy-4-(5-(methyl(2,2,6,6-tetramethyl-piperidin-4-yl)amino)-1,3,4-thiadiazol-2-yl)phenyl)-1-methylpyridin-2(1H)-one] was tested. Which EC50 did it give?
**A.** 134 nM

**Q.** And the “SMN Activity Fold” value?
**A.** 3.20 fold

**Q.** Which results are given for COc1cc(-c2ccc(O)nc2)ccc1-c1nnc(N(C)C2CC(C)(C)NC(C)(C)C2)s1 [Example 9, 5-(3-Methoxy-4-(5-(methyl(2,2,6,6-tetramethyl-piperidin-4-yl)amino)-1,3,4-thiadiazol-2-yl)phenyl)pyridin-2-ol]?
**A.** EC50: 784 nM; SMN Activity Fold (fold activation over DMSO control): 2.46 fold

**Q.** COc1cc(-c2ccc(=O)n(C)c2)ccc1-c1nnc(N(C)C2CC(C)(C)NC(C)(C)C2)s1 [Example 10, 5-(3-Methoxy-4-(5-(methyl(2,2,6,6-tetramethyl-piperidin-4-yl)amino)-1,3,4-thiadiazol-2-yl)phenyl)-1-methylpyridin-2(1H)-one] was tested. Which EC50 did it give?
**A.** 79 nM

**Q.** What about the “SMN Activity Fold” value of the same compound?
**A.** 2.65 fold

**Q.** Cc1cc(-c2cnn(C)c2)ccc1-c1nnc(N(C)C2CC(C)(C)NC(C)(C)C2)s1 [Example 11, N-Methyl-5-(2-methyl-4-(1-methyl-1H-pyrazol-4-yl)phenyl)-N-(2,2,6,6-tetramethylpiperidin-4-yl)-1,3,4-thiadiazol-2-amine] was tested. Which EC50 did it give?
**A.** 684 nM

**Q.** What about the “SMN Activity Fold” value of the same compound?
**A.** 2.84 fold

**Q.** How did the EC50 turn out when CN(c1nnc(-c2ccc(-c3ccn(C)c(=O)c3)cc2OC(F)(F)F)s1)C1CC(C)(C)NC(C)(C)C1 [Example 12, 1-Methyl-4-(4-(5-(methyl(2,2,6,6-tetramethyl-piperidin-4-yl)amino)-1,3,4-thiadiazol-2-yl)-3-(trifluoromethoxy)phenyl)pyridin-2(1H)-one] was run?
**A.** 895 nM

**Q.** And the “SMN Activity Fold” value?
**A.** 2.20 fold

**Q.** COc1cc(-c2c(C)n[nH]c2C)ccc1-c1nnc(N(C)C2CC(C)(C)NC(C)(C)C2)s1 [Example 13, 5-(4-(3,5-Dimethyl-1H-pyrazol-4-yl)-2-methoxy-phenyl)-N-methyl-N-(2,2,6,6-tetramethylpiperidin-4-yl)-1,3,4-thiadiazol-2-amine] was tested. Which “SMN Activity Fold” value did it give?
**A.** inactive

**Q.** CN(c1nnc(-c2ccc(-c3cnn(C)c3)cc2C(F)(F)F)s1)C1CC(C)(C)NC(C)(C)C1 [Example 14] was tested. Which “SMN Activity Fold” value did it give?
**A.** inactive

**Q.** For CN(c1nnc(-c2ccc(-c3cnn(C)c3)cc2O)s1)C1CC(C)(C)NC(C)(C)C1 [Example 15, 2-(5-(Methyl(2,2,6,6-tetramethylpiperidin-4-yl)amino)-1,3,4-thiadiazol-2-yl)-5-(1-methyl-1H-pyrazol-4-yl)phenol], which EC50 is on record?
**A.** 32 nM

**Q.** And the “SMN Activity Fold” value?
**A.** 3.14 fold

**Q.** CN(c1nnc(-c2ccc(-c3ccc(=O)n(C)c3)cc2O)s1)C1CC(C)(C)NC(C)(C)C1 [Example 17, 5-(3-Hydroxy-4-(5-(methyl(2,2,6,6-tetramethyl-piperidin-4-yl)amino)-1,3,4-thiadiazol-2-yl)phenyl)-1-methylpyridin-2(1H)-one] was tested. Which EC50 did it give?
**A.** 36 nM

**Q.** What about the “SMN Activity Fold” value of the same compound?
**A.** 2.74 fold

**Q.** Which EC50 does the source give for CN(c1nnc(-c2ccc(-c3ccn(C)c(=O)c3)cc2O)s1)C1CC(C)(C)NC(C)(C)C1 [Example 18, 4-(3-Hydroxy-4-(5-(methyl(2,2,6,6-tetramethyl-piperidin-4-yl)amino)-1,3,4-thiadiazol-2-yl)phenyl)-1-methylpyridin-2(1H)-one] here?
**A.** 61 nM

**Q.** What about the “SMN Activity Fold” value of the same compound?
**A.** 3.36 fold

**Q.** With CN(c1nnc(-c2ccc(-c3ccc(O)nc3)cc2O)s1)C1CC(C)(C)NC(C)(C)C1 [Example 19, 5-(3-Hydroxy-4-(5-(methyl(2,2,6,6-tetramethyl-piperidin-4-yl)amino)-1,3,4-thiadiazol-2-yl)phenyl)pyridin-2-ol] as the compound, how does the EC50 read?
**A.** 51 nM

**Q.** What about the “SMN Activity Fold” value of the same compound?
**A.** 2.85 fold

**Q.** Which EC50 does the source give for CN(c1nnc(-c2cc3ccc(O)cc3cc2O)s1)C1CC(C)(C)NC(C)(C)C1 [Example 20, 3-(5-(Methyl(2,2,6,6-tetramethylpiperidin-4-yl)amino)-1,3,4-thiadiazol-2-yl)naphthalene-2,7-diol] here?
**A.** 48 nM

**Q.** What about the “SMN Activity Fold” value of the same compound?
**A.** 2.63 fold

**Q.** Oc1ccc2cc(-c3nnc(N4C[C@H]5CNC[C@H]5C4)s3)c(O)cc2c1 [Example 21, 3-(5-((3aR,6aS)-Hexahydropyrrolo[3,4-c]pyrrol-2(1H)-yl)-1,3,4-thiadiazol-2-yl)naphthalene-2,7-diol] was tested. Which EC50 did it give?
**A.** 323 nM

**Q.** And the “SMN Activity Fold” value?
**A.** 2.66 fold

**Q.** What does the source list for CN(c1nnc(-c2cc3ccccc3cc2O)s1)C1CC(C)(C)NC(C)(C)C1 [Example 22, 3-(5-(Methyl(2,2,6,6-tetramethylpiperidin-4-yl)amino)-1,3,4-thiadiazol-2-yl)naphthalen-2-ol.HBr]?
**A.** EC50: 253 nM; SMN Activity Fold (fold activation over DMSO control): 2.70 fold

**Q.** What does the source list for CN(c1nnc(-c2cc3ccccc3nc2O)s1)C1CC(C)(C)NC(C)(C)C1 [Example 23, 3-(5-(Methyl(2,2,6,6-tetramethylpiperidin-4-yl)amino)-1,3,4-thiadiazol-2-yl)quinolin-2-ol]?
**A.** EC50: 231 nM; SMN Activity Fold (fold activation over DMSO control): 2.66 fold

**Q.** For CN(c1nnc(-c2cc(-n3cccn3)ccc2O)s1)C1CC(C)(C)NC(C)(C)C1 [Example 24, 2-(5-(Methyl(2,2,6,6-tetramethylpiperidin-4-yl)amino)-1,3,4-thiadiazol-2-yl)-4-(1H-pyrazol-1-yl)phenol], which EC50 is on record?
**A.** 987 nM

**Q.** What about the “SMN Activity Fold” value of the same compound?
**A.** 2.28 fold

**Q.** Which EC50 does the source give for CN(c1nnc(-c2ccc(-c3cnn(C)c3)cc2Cl)s1)C1CC(C)(C)NC(C)(C)C1 [Example 25, 5-(2-Chloro-4-(1-methyl-1H-pyrazol-4-yl)phenyl)-N-methyl-N-(2,2,6,6-tetramethylpiperidin-4-yl)-1,3,4-thiadiazol-2-amine] here?
**A.** 132 nM

**Q.** And the “SMN Activity Fold” value?
**A.** 2.49 fold

**Q.** CN(c1nnc(-c2c(O)cc(-c3cnn(C)c3)cc2Cl)s1)C1CC(C)(C)NC(C)(C)C1 [Example 26, 3-Chloro-2-(5-(methyl(2,2,6,6-tetramethylpiperidin-4-yl)amino)-1,3,4-thiadiazol-2-yl)-5-(1-methyl-1H-pyrazol-4-yl)phenol] was tested. Which “SMN Activity Fold” value did it give?
**A.** 2.26 fold

**Q.** What does the source list for Cn1cc(-c2ccc(-c3nnc(NC4CC(C)(C)NC(C)(C)C4)s3)c(Cl)c2)cn1 [Example 27, 5-(2-chloro-4-(1-methyl-1H-pyrazol-4-yl)phenyl)-N-(2,2,6,6-tetramethylpiperidin-4-yl)-1,3,4-thiadiazol-2-amine]?
**A.** EC50: 193 nM; SMN Activity Fold (fold activation over DMSO control): 2.48 fold

Reference: patent publication US9040712B2, “Thiadiazole analogs thereof and methods for treating SMN-deficiency-related-conditions” (NOVARTIS AG, priority 2013, dated 2015)
